Results as given in PubChem BioAssay AID1552 (Sanford-Burnham Center for Chemical Genomics, 2009).
Active and inactive are the calls of the source. No rule for the calls is given here.

The molecules below were run against Ubiquitin-conjugating enzyme E2 N (Homo sapiens) (UniProt P61088) (assay: UBE2N binders by NMR, biophysical, purified protein (AID 1552)). Conditions: NMR binding to purified UBE2N.
Chain of Ubiquitin-conjugating enzyme E2 N (Homo sapiens) (P61088 whole entry, looked up): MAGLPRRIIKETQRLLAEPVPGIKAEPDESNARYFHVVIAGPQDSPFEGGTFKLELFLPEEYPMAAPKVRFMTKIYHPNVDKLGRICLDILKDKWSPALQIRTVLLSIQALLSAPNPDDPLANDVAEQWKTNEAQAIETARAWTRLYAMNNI

Structure (SMILES)	Kd
c1ccc(-c2noc(-c3cccnc3)n2)nc1	> 4 mM (inactive)
Nc1ccc2[nH]ncc2c1	> 4 mM (inactive)
Cc1ccc(/C=N/n2c(C)nnc2C)cc1	> 4 mM (inactive)
Cc1c(/C=N/O)cnn1C	> 4 mM (inactive)
Cn1c(CN2CC(c3ccccc3)CC2=O)n[nH]c1=S (configuration not stated)	> 4 mM (inactive)
O=C1NC(=S)N/C1=C\c1cccc([N+](=O)[O-])c1	> 4 mM (inactive)
Cc1cc(C)cc(C(=O)N2CCC(C(N)=O)CC2)c1	> 4 mM (inactive)
O=C1CCC([N+](=O)[O-])C(c2ccccc2F)N1 (configuration not stated)	> 4 mM (inactive)
Nc1ccc(C2SCCS2)cc1	> 4 mM (inactive)
Cc1cc(C)cc(OC(=O)N2CCOCC2)c1	> 4 mM (inactive)
O=c1[nH]cc(NCc2ccco2)c(=O)[nH]1	> 4 mM (inactive)
CC1(C)Cc2nc3n[nH]c(N)c3cc2CO1	> 4 mM (inactive)
O=S(=O)(Cc1ccccc1Cl)Nc1ccccn1	> 4 mM (inactive)
CC1(c2ccncc2)NC(=O)NC1=O (configuration not stated)	> 4 mM (inactive)
Nc1ncnc(NCc2cccnc2)c1[N+](=O)[O-]	> 4 mM (inactive)
NNC(=O)c1ccccc1-n1cccc1	> 4 mM (inactive)
NS(=O)(=O)c1ccc2c3c(cccc13)C(=O)N2	> 4 mM (inactive)
Cc1nn(C)c2sc(C(=O)O)cc12	> 4 mM (inactive)
CCn1c(C)c(C(C)=O)c(N2CCN(C)CC2)nc1=S	> 4 mM (inactive)
Fc1ccc(Br)cc1/C=N/n1cnnc1	> 4 mM (inactive)
CCCCCCCCCCCCCCC(C(=O)OC)C(O)(CC(=O)OC)C(=O)OC (configuration not stated)	> 4 mM (inactive)
COC(=O)CC1C(C)(C)C(OC(C)=O)[C@@H]2[C@@H](OC(C)=O)[C@]34O[C@@]2(O)[C@]1(C)C3CC[C@]1(C)C4=CC(=O)O[C@H]1c1ccoc1 (some centres not stated)	> 4 mM (inactive)
COc1ccc(C[C@H]2NC[C@H](O)[C@H]2OC(C)=O)cc1	> 4 mM (inactive)
O=C(O)C1NCCc2ccccc21 (configuration not stated)	> 4 mM (inactive)

Structure (SMILES)	Kd
NNc1ncnc2sccc12	> 4 mM (inactive)
CC1=C(C(=O)Nc2ccccc2)SCCO1	> 4 mM (inactive)
Nc1cc(C(=O)N2CCCC2)cc(C(=O)N2CCCC2)c1	> 4 mM (inactive)
CC(=O)Nc1cc(C(F)(F)F)ccc1N1CCOCC1	> 4 mM (inactive)
Nc1nc(-c2nc3ccccc3[nH]2)cs1	> 4 mM (inactive)
CC(=O)Nc1cc2c(cc1C(=O)C(C)C)OCCO2	> 4 mM (inactive)
COc1cccc(NC(=O)c2ncn[nH]2)c1	> 4 mM (inactive)
NC(=O)CS(=O)(=O)c1ccc(Cl)cc1	> 4 mM (inactive)
Nc1c(N2CCCC2)cnn(-c2ccccc2)c1=O	> 4 mM (inactive)
O=C1NC(=O)C(Cc2ccccc2)C(=O)N1	> 4 mM (inactive)
CC(=O)Nc1sccc1C(N)=O	> 4 mM (inactive)
Nc1ccc(-c2csnn2)cc1	> 4 mM (inactive)
COC(=O)/C(C)=C\CC12OC(C)(C)C3CC(C=C4C(=O)c5c(OC)c6c(c(CC=C(C)C)c5OC431)OC(C)(CCC=C(C)C)C=C6)C2=O (configuration not stated)	> 4 mM (inactive)
COc1c2ccoc2c(OC)c2oc(=O)ccc12	> 4 mM (inactive)
NC(C(=O)O)C(O)C(=O)O (configuration not stated)	> 4 mM (inactive)
COc1nc(-c2ccccc2)ccc1-c1noc(C)n1	> 4 mM (inactive)
COc1ccc([C@H]2COc3c(ccc(O)c3OC)C2)c(OC)c1O	> 4 mM (inactive)
CC(O)(C(=O)O)c1ccccc1 (configuration not stated)	> 4 mM (inactive)
CC(=O)c1c(C)n(O)c2ccc3nonc3c12	> 4 mM (inactive)
Cc1cccc(NC(=O)c2ccccc2C(=O)O)c1	> 4 mM (inactive)
CCS(=O)(=O)N1CCN(c2ccccc2F)CC1	> 4 mM (inactive)
CN1C(=O)N(C)C2NC(=O)NC21 (configuration not stated)	> 4 mM (inactive)
Oc1ccc2c(c1)OCO2	> 4 mM (inactive)
Cc1cc(=O)[nH]c2ccccc12	> 4 mM (inactive)

Structure (SMILES)	Kd
COc1cc2c(cc1OC)[C@@H]1C(=O)c3ccc4oc(C(C)C)cc4c3O[C@@H]1CO2	> 4 mM (inactive)
NCc1ccc2c(c1)OCCO2	> 4 mM (inactive)
Cc1nc(-c2ccc(CO)s2)cs1	> 4 mM (inactive)
OCC1CCN(c2ncccn2)CC1	> 4 mM (inactive)
O=c1c2ccccc2oc2ccccc12	> 4 mM (inactive)
C=C(C)CSc1nc2nc(C)cc(C)n2n1	> 4 mM (inactive)
O=C1C2C3C=CC(C3)C2C(=O)N1c1ccccn1 (configuration not stated)	> 4 mM (inactive)
Oc1ccccc1N1CCOCC1	> 4 mM (inactive)
C[C@H]1[C@H]2CCC3C4CC=C5C[C@@H](N(C)C)CC[C@]5(C)C4CC[C@@]32CN1C (some centres not stated)	> 4 mM (inactive)
O=C(c1ccc(F)cc1)C1CCNCC1	> 4 mM (inactive)
Nc1ncnc(NCCCO)c1[N+](=O)[O-]	> 4 mM (inactive)
NCc1n[nH]c(=O)c2ccccc12	> 4 mM (inactive)
O=C1NC(=O)C(C2SC(=O)NC2=O)S1 (configuration not stated)	> 4 mM (inactive)
OCc1cccc2c1OCCO2	> 4 mM (inactive)
Cc1oc2nc3c(c(=O)[nH]c(=O)n3C)n2c1C	> 4 mM (inactive)
O=c1c(O)c(-c2ccccc2)oc2ccc3occc3c12	> 4 mM (inactive)
COc1c(-c2coc3cc4c(cc3c2=O)CC(O)C(C)(C)O4)ccc2c1C=CC(C)(C)O2 (configuration not stated)	> 4 mM (inactive)
CSc1nc(C)cc(Oc2ccc(=O)n(C)n2)n1	> 4 mM (inactive)
O=C(Nc1ccon1)c1csc2ccccc12	> 4 mM (inactive)
CC12CC[C@H](CC1=O)C2(C)C	> 4 mM (inactive)
CC(=O)Nc1cc(S(=O)(=O)N(C)C)ccc1Cl	> 4 mM (inactive)
COc1ccc(-c2cc(=O)c3c(OC)c(OC)c(OC)c(OC)c3o2)cc1	> 4 mM (inactive)
CSc1nc(NC(C)C)nc(N2CCOCC2)n1	> 4 mM (inactive)
COc1ccc2c3c([nH]c2c1)C(C)=NCC3	> 4 mM (inactive)

Structure (SMILES)	Kd
O=C(NC1=NCCS1)c1cccc(F)c1	> 4 mM (inactive)
COc1ccc2c(c1)OC1(O)COc3cc(OC)c(OC)cc3C1=C2 (configuration not stated)	> 4 mM (inactive)
NCCNC(=S)Nc1ccccc1	> 4 mM (inactive)
CC(=O)O[C@@H]1CC[C@@]2(C)C(CC[C@]3(C)C2CC=C2C4CC(C)(C)CC[C@]4(C(=O)O)CC[C@]23C)C1(C)C (some centres not stated)	> 4 mM (inactive)
NC(=O)c1ccccc1N1CCCCC1	> 4 mM (inactive)
Cc1ccc(N2C(=O)C3C4C=CC(O4)C3C2=O)cc1 (configuration not stated)	> 4 mM (inactive)
O=c1[nH]c2c(c(=O)n1C1CCCCC1)CCC2	> 4 mM (inactive)
O=C(NC(O)C(=O)c1ccccc1)c1ccco1 (configuration not stated)	> 4 mM (inactive)
COc1cc(S(=O)(=O)Nc2cccnc2)ccc1F	> 4 mM (inactive)
CC(=O)O[C@@H]1CC2C(C)(C)[C@H](O)C=C[C@]2(C)C2CC[C@]3(C)C(=CC(=O)O[C@H]3c3ccoc3)[C@@]21C (some centres not stated)	> 4 mM (inactive)
Cc1cc(NC(=O)CSc2ccnc(=O)[nH]2)no1	> 4 mM (inactive)
CC(=O)Nc1c(Cl)cnn(-c2ccccc2)c1=O	> 4 mM (inactive)
COc1ccc(S(N)(=O)=O)cc1	> 4 mM (inactive)
COC(=O)c1c(C)cc(OC(=O)c2c(C)cc(O)c(C=O)c2O)c(C)c1O	> 4 mM (inactive)
C=C(C)[C@@H]1[C@H]2OC(=O)[C@@H]1[C@]1(O)C[C@H]3O[C@]34C(=O)O[C@H]2[C@]14C	> 4 mM (inactive)
CC(=O)Nc1ccc(S(=O)(=O)NC2=NCCS2)cc1	> 4 mM (inactive)
CC(C)C1COc2cc3oc(=O)ccc3cc2O1 (configuration not stated)	> 4 mM (inactive)
CC(=O)NCCc1cc2ccc(C)c(C)c2[nH]c1=O	> 4 mM (inactive)
OC[C@@H](O)[C@@H](O[C@@H]1O[C@H](CO)[C@@H](O)[C@H](O)[C@H]1O)[C@H](O)[C@@H](O)CO	> 4 mM (inactive)
O=C(Nn1cnnc1)c1csc2ccccc12	> 4 mM (inactive)
O=C(Nc1cccc(Cl)c1)c1cnn2cccnc12	> 4 mM (inactive)
Cc1ccccc1CSc1nncn1N	> 4 mM (inactive)
COc1ccc2c(c1)OC[C@@H](Cc1ccc(OC)c(OC)c1)[C@H]2O	> 4 mM (inactive)
CC(=O)NC(c1ccccc1)c1cccnc1 (configuration not stated)	> 4 mM (inactive)

Structure (SMILES)	Kd
Cc1n[nH]c(=O)c2ncn(C)c12	> 4 mM (inactive)
CCCc1nc2ccccc2c2nc(N)nn12	> 4 mM (inactive)
O=C(C1CCNCC1)N1CCCCCC1	> 4 mM (inactive)
CC(C)=CC1C(CO)C1(C)C (configuration not stated)	> 4 mM (inactive)
COc1cc2cc3c4cc(OC)c(OC)cc4cc[n+]3c(C)c2cc1OC	> 4 mM (inactive)
O=C(O)c1coc2c1C(=O)CCC2	> 4 mM (inactive)
O=C(c1ccncc1)N1CCN(C(=O)c2ccncc2)CC1	> 4 mM (inactive)
COc1ccc(C(=O)/C=C/c2ccccc2)cc1	> 4 mM (inactive)
COc1ccc2c3c1O[C@H]1C[C@@H](O)C=C[C@@]31CCN(C)C2	> 4 mM (inactive)
CC(=O)OC(C)(C)[C@@H]1Cc2cc3ccc(=O)oc3cc2O1	> 4 mM (inactive)
O=C1NC(=Nc2ccc(O)cc2)S/C1=C/c1ccco1	> 4 mM (inactive)
COc1ccc(C2(CN)CCOCC2)cc1OC	> 4 mM (inactive)
Cc1c(C(=O)Nc2ccncc2)oc2c1C(=O)CC(C)(C)C2	> 4 mM (inactive)
Cc1nn(-c2ccccc2)nc1C(=O)O	> 4 mM (inactive)
O=C(O)CSCc1ccc(Cl)cc1	> 4 mM (inactive)
CC1(C)C=Cc2c(cc3occ(-c4ccc5c(c4)OCO5)c(=O)c3c2O)O1	> 4 mM (inactive)
COC(=O)c1cccnc1Oc1ccccc1	> 4 mM (inactive)
Cc1c(/C=N\n2cnnc2)c2ccccc2n1C	> 4 mM (inactive)
Nc1ccc(NS(=O)(=O)c2ccc(N)cc2)cc1	> 4 mM (inactive)
O=C(O)c1cccc2c1OCCO2	> 4 mM (inactive)
OCC1Cc2ccccc2N1 (configuration not stated)	> 4 mM (inactive)
